Data: patent US20230131899A1, “INHIBITORS OF MICROBIALLY INDUCED AMYLOID” (Axial Therapeutics, Inc., priority 2020, published 2023)
Where two headings read alike, the source gives them in different places.

Target: T1, E. coli CsgA (Escherichia coli, UniProt P28307)
T1 construct: made in house; host or cells: E. coli NEB 3016 slyD::kan, pET11d
Assay: In vitro ThioflavinT assay of CsgA aggregation (CsgA ThT Assay)
Format: biochemical
Conditions: for remaining activity at 25 µM: compound 25 μM; for remaining activity at 100 µM: compound 100 μM
In short: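 Purified C-terminal His-tagged CsgA, monomerised by desalting and 30-kDa filtration, at 2-20 μM with 20-40 μM ThT in 50 mM potassium phosphate pH 7.3, 1% DMSO, compounds 3.125-200 uM; room temperature, fluorescence (ex 438/em 495 nm) read every 15 min. Background-subtracted signal expressed as percent inhibition versus vehicle at 6-6.5 or 8-9 h, or as percent control AUC.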

[1] = read-out: CsgA ThT Assay (2 μM CsgA) % Control Bmax 25 μM, activity range, class symbol, CsgA 2 μM, white plates
[2] = read-out: CsgA ThT Assay (2 μM CsgA) % Control Bmax 25 μM, mean Bmax as percentage of DMSO control, CsgA 2 μM, white plates
[3] = read-out: CsgA ThT Assay (2 μM CsgA) % Control Bmax 100 μM, activity range, class symbol, CsgA 2 μM, white plates
[4] = read-out: CsgA ThT Assay (2 μM CsgA) % Control Bmax 100 μM, mean Bmax as percentage of DMSO control, CsgA 2 μM, white plates
[5] = read-out: CsgA ThT Assay (10 μM CsgA) % Control AUC at 1005 minutes, 25 μM (activity range), CsgA 10 μM, black plates, 1005 minutes, class symbol
[6] = read-out: CsgA ThT Assay (10 μM CsgA) % Control AUC at 1005 minutes, 25 μM, mean AUC as % of DMSO control, CsgA 10 μM, black plates, 1005 minutes
[7] = read-out: CsgA ThT Assay (10 μM CsgA) % Control AUC at 1005 minutes, 100 μM (activity range), CsgA 10 μM, black plates, 1005 minutes, class symbol
[8] = read-out: CsgA ThT Assay (10 μM CsgA) % Control AUC at 1005 minutes, 100 μM, mean AUC as % of DMSO control, CsgA 10 μM, black plates, 1005 minutes

T1 sequence (P28307 23-151): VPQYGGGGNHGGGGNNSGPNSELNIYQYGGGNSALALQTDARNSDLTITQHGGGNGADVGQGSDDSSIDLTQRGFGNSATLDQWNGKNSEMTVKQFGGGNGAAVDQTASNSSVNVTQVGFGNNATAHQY

| Structure (SMILES) | remaining activity at 25 µM [1] | remaining activity at 25 µM [2] | remaining activity at 100 µM [3] | remaining activity at 100 µM [4] | remaining activity at 25 µM [5] | remaining activity at 25 µM [6] | remaining activity at 100 µM [7] | remaining activity at 100 µM [8] |
| --- | --- | --- | --- | --- | --- | --- | --- | --- |
| CCCNC(=O)c1c(Cc2cccc3ccccc23)c(-c2cccc(C(F)(F)F)c2)c2n(c1=O)C(C(=O)O)CN(C)S2(=O)=O (centres unmarked) [Compound 154, 2-methyl-8-(naphthalen-1-ylmethyl)-6-oxo-7-(propylcarbamoyl)-9-(3-(trifluoromethyl)phenyl)-3,4-dihydro-2H,6H-pyrido[1,2-e][1,2,5]thiadiazine-4-carboxylic acid 1,1-dioxide] | > 60% | 92% | > 60% | 63% | – | – | – | – |
| O=C(O)C1CN(CCC2CCCCC2)c2c(-c3cccc(C(F)(F)F)c3)c(Cc3cccc4ccccc34)c(Cl)c(=O)n21 (centres unmarked) [Compound 207, 6-chloro-1-(2-cyclohexylethyl)-7-(naphthalen-1-ylmethyl)-5-oxo-8-(3-(trifluoromethyl)phenyl)-1,2,3,5-tetrahydroimidazo[1,2-a]pyridine-3-carboxylic acid] | 31 to 60% | 51% | 11 to 31% | 20% | – | – | – | – |
| CC(C)N1CC(C(=O)O)n2c1c(-c1cccc(C(F)(F)F)c1)c(Cc1cccc3ccccc13)c(Cl)c2=O (centres unmarked) [Compound 179, 6-chloro-1-isopropyl-7-(naphthalen-1-ylmethyl)-5-oxo-8-(3-(trifluoromethyl)phenyl)-1,2,3,5-tetrahydroimidazo[1,2-a]pyridine-3-carboxylic acid] | > 60% | 65% | 31 to 60% | 48% | – | – | – | – |
| O=C(O)C1CN(CC2CCCC2)c2c(-c3cccc(C(F)(F)F)c3)c(Cc3cccc4ccccc34)c(Cl)c(=O)n21 (centres unmarked) [Compound 167, 6-chloro-1-(cyclopentylmethyl)-7-(naphthalen-1-ylmethyl)-5-oxo-8-(3-(trifluoromethyl)phenyl)-1,2,3,5-tetrahydroimidazo[1,2-a]pyridine-3-carboxylic acid] | > 60% | 65% | 31 to 60% | 49% | – | – | – | – |
| O=C(O)C1CN(CCCO)S(=O)(=O)c2c(-c3cccc(C(F)(F)F)c3)c(Cc3cccc4ccccc34)cc(=O)n21 (centres unmarked) [Compound 056, 2-(3-hydroxypropyl)-8-(naphthalen-1-ylmethyl)-6-oxo-9-(3-(trifluoromethyl)phenyl)-3,4-dihydro-2H,6H-pyrido[1,2-e][1,2,5]thiadiazine-4-carboxylic acid 1,1-dioxide] | – | – | – | – | 31 to 60% | 38% | 31 to 60% | 34% |
| O=C(O)C1CN(Cc2ccncc2)c2c(-c3cccc(C(F)(F)F)c3)c(Cc3cccc4ccccc34)c(Cl)c(=O)n21 (centres unmarked) [Compound 174, 6-chloro-7-(naphthalen-1-ylmethyl)-5-oxo-1-(pyridin-4-ylmethyl)-8-(3-(trifluoromethyl)phenyl)-1,2,3,5-tetrahydroimidazo[1,2-a]pyridine-3-carboxylic acid] | > 60% | 77% | 31 to 60% | 60% | – | – | – | – |
| O=C(O)c1c(CCc2ccccc2)sc2c(-c3cccc(C(F)(F)F)c3)c(Cc3cccc4ccccc34)cc(=O)n12 [Compound 062, 7-(naphthalen-1-ylmethyl)-5-oxo-2-phenethyl-8-(3-(trifluoromethyl)phenyl)-5H-thiazolo[3,2-a]pyridine-3-carboxylic acid] | – | – | – | – | > 60% | 77% | > 60% | 97% |
| CN1CC(C(=O)O)n2c(c(-c3cccc(C(F)(F)F)c3)c(Cc3cccc4ccccc34)c(NCc3ccccc3)c2=O)S1(=O)=O (centres unmarked) [Compound 071] | – | – | – | – | 11 to 31% | 25% | > 60% | 78% |
